Test results reported in paper PMC9127186, “Molecular Basis Underlying Hepatobiliary and Renal Excretion of Phenolic Acids of Salvia miltiorrhiza Roots (Danshen)” (Frontiers in Pharmacology, 2022).

What was measured:
[1] = target: T1, rat Pept2 (Rattus norvegicus, UniProt Q63424); experiment: Cellular transport assay, HEK-293 cells expressing rat Pept2; conditions: Danshen phenolic acid at 100 μM final concentration, 10 min, incubation pH 6.0; rat Pept2-transfected vs mock cells
T1 sequence (Q63424 1-729): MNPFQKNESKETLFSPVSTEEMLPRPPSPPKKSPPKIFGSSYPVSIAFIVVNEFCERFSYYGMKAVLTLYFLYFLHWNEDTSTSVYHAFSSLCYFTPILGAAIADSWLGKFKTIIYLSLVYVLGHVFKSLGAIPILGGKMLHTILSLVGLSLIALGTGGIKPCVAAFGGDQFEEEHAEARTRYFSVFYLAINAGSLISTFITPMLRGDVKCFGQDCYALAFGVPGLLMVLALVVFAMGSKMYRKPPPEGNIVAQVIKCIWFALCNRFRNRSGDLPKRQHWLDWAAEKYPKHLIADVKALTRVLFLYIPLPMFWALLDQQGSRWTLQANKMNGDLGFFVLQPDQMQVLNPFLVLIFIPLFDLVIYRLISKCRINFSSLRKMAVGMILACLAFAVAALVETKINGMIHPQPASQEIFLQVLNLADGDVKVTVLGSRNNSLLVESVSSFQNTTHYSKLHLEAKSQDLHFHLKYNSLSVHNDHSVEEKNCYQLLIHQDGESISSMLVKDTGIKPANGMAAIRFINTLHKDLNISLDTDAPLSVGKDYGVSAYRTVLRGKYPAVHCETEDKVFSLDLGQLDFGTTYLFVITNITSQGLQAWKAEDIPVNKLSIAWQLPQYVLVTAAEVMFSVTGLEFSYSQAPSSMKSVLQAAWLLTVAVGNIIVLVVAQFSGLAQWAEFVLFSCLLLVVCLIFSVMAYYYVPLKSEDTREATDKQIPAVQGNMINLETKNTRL

[2] = target: T2, human PEPT1 (Homo sapiens, UniProt P46059); experiment: Cellular transport assay, HEK-293 cells expressing human PEPT1; conditions: Danshen phenolic acid at 100 μM final concentration, 10 min, incubation pH 6.0; human transporter PEPE1 [sic], transfected vs mock cells
T2 sequence (P46059 1-708): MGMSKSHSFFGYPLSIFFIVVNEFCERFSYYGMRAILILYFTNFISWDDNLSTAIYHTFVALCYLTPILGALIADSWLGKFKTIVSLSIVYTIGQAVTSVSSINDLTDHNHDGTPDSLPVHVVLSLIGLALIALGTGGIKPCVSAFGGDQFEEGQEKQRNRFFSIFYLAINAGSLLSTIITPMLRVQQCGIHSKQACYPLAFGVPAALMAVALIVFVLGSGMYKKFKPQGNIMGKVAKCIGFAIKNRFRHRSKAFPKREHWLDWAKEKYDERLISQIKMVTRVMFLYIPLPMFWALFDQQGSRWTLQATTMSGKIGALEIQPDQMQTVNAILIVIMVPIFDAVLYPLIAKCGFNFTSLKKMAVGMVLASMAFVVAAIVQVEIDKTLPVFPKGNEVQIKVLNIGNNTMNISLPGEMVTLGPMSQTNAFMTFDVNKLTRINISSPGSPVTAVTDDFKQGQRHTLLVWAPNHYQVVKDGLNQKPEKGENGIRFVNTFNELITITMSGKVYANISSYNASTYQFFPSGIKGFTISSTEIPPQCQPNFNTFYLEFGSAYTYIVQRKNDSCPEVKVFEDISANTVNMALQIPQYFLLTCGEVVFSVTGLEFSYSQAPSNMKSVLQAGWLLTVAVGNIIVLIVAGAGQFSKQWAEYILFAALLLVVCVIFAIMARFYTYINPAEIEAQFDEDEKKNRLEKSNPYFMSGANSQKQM

[3] = target: T3, rat Oct3 (Rattus norvegicus, UniProt O88446); experiment: Cellular transport assay, HEK-293 cells expressing rat Oct3; conditions: Danshen phenolic acid at 100 μM final concentration, 10 min; rat Oct3-transfected vs mock cells
T3 sequence (O88446 1-551): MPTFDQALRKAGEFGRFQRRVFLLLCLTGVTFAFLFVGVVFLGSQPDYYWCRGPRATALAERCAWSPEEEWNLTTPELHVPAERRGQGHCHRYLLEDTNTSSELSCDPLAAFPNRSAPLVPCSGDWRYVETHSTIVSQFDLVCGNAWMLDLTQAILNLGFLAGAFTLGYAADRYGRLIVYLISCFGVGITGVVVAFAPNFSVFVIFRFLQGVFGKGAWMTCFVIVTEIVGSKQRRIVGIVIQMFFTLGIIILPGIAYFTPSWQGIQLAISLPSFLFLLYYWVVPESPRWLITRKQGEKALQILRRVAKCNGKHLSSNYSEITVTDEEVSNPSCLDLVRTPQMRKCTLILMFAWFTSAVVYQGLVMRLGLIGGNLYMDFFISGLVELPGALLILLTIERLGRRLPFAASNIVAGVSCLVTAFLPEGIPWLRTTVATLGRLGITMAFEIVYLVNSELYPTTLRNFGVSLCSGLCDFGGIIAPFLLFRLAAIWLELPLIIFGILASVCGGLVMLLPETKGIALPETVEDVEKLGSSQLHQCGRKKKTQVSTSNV

[4] = target: T4, human NTCP (Homo sapiens, UniProt Q14973); experiment: Cellular transport assay, HEK-293 cells expressing human NTCP; conditions: Danshen phenolic acid at 100 μM final concentration, 10 min; human NTCP-transfected vs mock cells
T4 sequence (Q14973 1-349): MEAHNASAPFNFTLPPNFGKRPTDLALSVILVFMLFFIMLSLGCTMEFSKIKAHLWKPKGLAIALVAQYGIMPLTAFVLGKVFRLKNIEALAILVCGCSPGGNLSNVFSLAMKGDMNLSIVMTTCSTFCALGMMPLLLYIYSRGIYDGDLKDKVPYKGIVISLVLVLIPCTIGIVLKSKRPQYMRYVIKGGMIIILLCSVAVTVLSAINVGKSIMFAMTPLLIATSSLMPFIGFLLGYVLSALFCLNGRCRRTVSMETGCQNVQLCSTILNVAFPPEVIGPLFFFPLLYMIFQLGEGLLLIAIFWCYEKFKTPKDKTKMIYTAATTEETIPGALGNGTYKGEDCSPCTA

Compound | TransportTC/TransportMC ratio (net transport ratio) [1] | TransportTC/TransportMC ratio (net transport ratio) [2] | TransportTC/TransportMC ratio (net transport ratio) [3] | TransportTC/TransportMC ratio (net transport ratio) [4]
O=C(O)Cc1c(/C=C/C(=O)O[C@H](Cc2ccc(O)c(O)c2)C(=O)O)ccc(O)c1O [Salvianolic acid D, salvianolic acid D] | 1.88 ± 0.45 | 1.06 ± 0.20 | 0.93 ± 0.15 | 2.09 ± 0.36
O=C(/C=C/c1ccc(O)c2c1[C@H](C(=O)O)[C@@H](c1ccc(O)c(O)c1)O2)O[C@H](Cc1ccc(O)c(O)c1)C(=O)O [Lithospermic acid, lithospermic acid] | 0.85 ± 0.14 | 1.86 ± 0.36 | 0.81 ± 0.13 | 2.44 ± 0.13
salvianolic acid B | 0.94 ± 0.21 | 2.05 ± 0.22 | 0.84 ± 0.31 | 2.88 ± 0.21
O=C(O)c1ccc(O)c(O)c1 [Protocatechuic acid, protocatechuic acid] | 1.21 ± 0.26 | 0.93 ± 0.34 | 0.85 ± 0.11 | 1.26 ± 0.15
O=C(/C=C/c1ccc(O)c(O)c1)O[C@H](Cc1ccc(O)c(O)c1)C(=O)O [Rosmarinic acid, rosmarinic acid] | – | – | 0.74 ± 0.24 | –
